Test results as given in patent US20240067631A1, “PYRAZOLE DERIVATIVES USEFUL AS NAMPT MODULATORS” (Cytokinetics, Inc., priority 2020, published 2024).

Molecular target: human NAMPT (Homo sapiens (Human), UniProt P43490)
Assay: Human recombinant enzyme assay (NMN fluorescence biochemical assay)
Conditions: 6 nM human NAMPT, 60 min; for AC1.4 Human: concentration of compound that generates 40% higher activity over basal; for EC50: concentration that gives half-maximal activation
Procedure, shortened: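 Recombinant human NAMPT (6 nM) with 2.5 mM ATP, […] PRPP and […] nicotinamide in HEPES pH 7.2 with DTT, CHAPS, NaCl, MgCl2; 60 min at ambient temperature. NMN derivatised with acetophenone/KOH/formic acid, fluorescence read at 355/460 nm. AC1.4 (40% above basal) and EC50 reported.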

Sequence of human NAMPT (P43490 whole entry): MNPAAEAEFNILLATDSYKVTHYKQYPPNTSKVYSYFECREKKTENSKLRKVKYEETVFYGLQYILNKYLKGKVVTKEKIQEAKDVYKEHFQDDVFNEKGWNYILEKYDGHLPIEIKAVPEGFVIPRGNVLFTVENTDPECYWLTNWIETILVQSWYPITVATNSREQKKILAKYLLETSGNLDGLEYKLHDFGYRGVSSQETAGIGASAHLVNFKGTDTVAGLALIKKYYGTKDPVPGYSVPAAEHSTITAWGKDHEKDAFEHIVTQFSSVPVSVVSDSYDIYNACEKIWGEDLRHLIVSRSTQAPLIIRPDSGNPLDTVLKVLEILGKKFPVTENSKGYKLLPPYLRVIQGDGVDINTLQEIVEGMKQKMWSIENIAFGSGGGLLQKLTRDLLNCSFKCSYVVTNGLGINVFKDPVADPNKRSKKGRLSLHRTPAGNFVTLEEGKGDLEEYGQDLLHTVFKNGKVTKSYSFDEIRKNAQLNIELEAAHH

SMILES	AC1.4 Human	EC50
CCCN(CCc1cn[nH]c1)c1nc(C(N)=O)nc(C)c1C [Compound 106, 4-((2-(1H-pyrazol-4-yl)ethyl)(propyl)amino)-5,6-dimethylpyrimidine-2-carboxamide]	1.7115 µM	32.7 µM
CCC1(O)CN(C(=O)c2nc(C)c(C)c(NCCc3cn[nH]c3)n2)C1 [Compound 107, (4-((2-(1H-pyrazol-4-yl)ethyl)amino)-5,6-dimethylpyrimidin-2-yl)(3-ethyl-3-hydroxyazetidin-1-yl)methanone]	2.339 µM	14 µM
Cc1nc(C(=O)NCC(F)(F)c2ccccc2)nc(NCCc2cn[nH]c2)c1C [Compound 111, 4-((2-(1H-pyrazol-4-yl)ethyl)amino)-N-(2,2-difluoro-2-phenylethyl)-5,6-dimethylpyrimidine-2-carboxamide]	1.9995 µM	18.5 µM
Cc1nc(C(=O)N[C@H](C)c2cc3ccccc3o2)nc(NCCc2cn[nH]c2)c1C [Compound 112, (R)-4-((2-(1H-pyrazol-4-yl)ethyl)amino)-N-(1-(benzofuran-2-yl)ethyl)-5,6-dimethylpyrimidine-2-carboxamide]	2.084 µM	2.97 µM
Cc1nc(C(=O)NC2(c3ccccc3)COC2)nc(NCCc2cn[nH]c2)c1C [Compound 114, 4-((2-(1H-pyrazol-4-yl)ethyl)amino)-5,6-dimethyl-N-(3-phenyloxetan-3-yl)pyrimidine-2-carboxamide]	2.1125 µM	23.1 µM
Cc1nc(C(=O)N2CCC2c2cccc(F)c2)nc(NCCc2cn[nH]c2)c1C (stereo not shown) [Compound 115, (4-((2-(1H-pyrazol-4-yl)ethyl)amino)-5,6-dimethylpyrimidin-2-yl)(2-(3-fluorophenyl)azetidin-1-yl)methanone]	2.136 µM	10.7 µM
Cc1nc(C(=O)N[C@H](C)C2CCCCC2)nc(NCCc2cn[nH]c2)c1C [Compound 116, (R)-4-((2-(1H-pyrazol-4-yl)ethyl)amino)-N-(1-cyclohexylethyl)-5,6-dimethylpyrimidine-2-carboxamide]	2.9705 µM	29.6 µM
Cc1nc(C(=O)Nc2cc(F)cc(F)c2)nc(NCCc2cn[nH]c2)c1C [Compound 117, 4-((2-(1H-pyrazol-4-yl)ethyl)amino)-N-(3,5-difluorophenyl)-5,6-dimethylpyrimidine-2-carboxamide]	2.2385 µM	47.6 µM
Cc1nc(C(=O)N2CCC(C(F)(F)F)CC2)nc(NCCc2cn[nH]c2)c1C [Compound 119, (4-((2-(1H-pyrazol-4-yl)ethyl)amino)-5,6-dimethylpyrimidin-2-yl)(4-(trifluoromethyl)piperidin-1-yl)methanone]	32.854 µM	47.2 µM
Cc1nc(C(=O)NCc2ncccc2F)nc(NCCc2cn[nH]c2)c1C [Compound 120, 4-((2-(1H-pyrazol-4-yl)ethyl)amino)-N-((3-fluoropyridin-2-yl)methyl)-5,6-dimethylpyrimidine-2-carboxamide]	2.443 µM	15.2 µM
Cc1nc(C(=O)NC(C)(C)c2cccnc2)nc(NCCc2cn[nH]c2)c1C [Compound 121, 4-((2-(1H-pyrazol-4-yl)ethyl)amino)-5,6-dimethyl-N-(2-(pyridin-3-yl)propan-2-yl)pyrimidine-2-carboxamide]	2.5075 µM	22.1 µM
Cc1nc(C(=O)NCC(O)(c2ccccc2)C(F)(F)F)nc(NCCc2cn[nH]c2)c1C (stereo not shown) [Compound 122, 4-((2-(1H-pyrazol-4-yl)ethyl)amino)-5,6-dimethyl-N-(3,3,3-trifluoro-2-hydroxy-2-phenylpropyl)pyrimidine-2-carboxamide]	2.574 µM	16.7 µM
Cc1nc(C(=O)N2CC3(CCC3)C2)nc(NCCc2cn[nH]c2)c1C [Compound 123, (4-((2-(1H-pyrazol-4-yl)ethyl)amino)-5,6-dimethylpyrimidin-2-yl)(2-azaspiro[3.3]heptan-2-yl)methanone]	2.581 µM	26.4 µM
Cc1nc(C(=O)N2CC(C)(O)C2)nc(NCCc2cn[nH]c2)c1C [Compound 125, (4-((2-(1H-pyrazol-4-yl)ethyl)amino)-5,6-dimethylpyrimidin-2-yl)(3-hydroxy-3-methylazetidin-1-yl)methanone]	4.313 µM	22 µM
Cc1nc(C(=O)N2CCC[C@@H]2c2ccccn2)nc(NCCc2cn[nH]c2)c1C [Compound 126, (R)-(4-((2-(1H-pyrazol-4-yl)ethyl)amino)-5,6-dimethylpyrimidin-2-yl)(2-(pyridin-2-yl)pyrrolidin-1-yl)methanone]	3.1455 µM	13.4 µM
Cc1nc(C(=O)NCC(O)C(F)(F)F)nc(NCCc2cn[nH]c2)c1C (stereo not shown) [Compound 128, 4-((2-(1H-pyrazol-4-yl)ethyl)amino)-5,6-dimethyl-N-(3,3,3-trifluoro-2-hydroxypropyl)pyrimidine-2-carboxamide]	3.235 µM	28 µM

Continued, values first:

AC1.4 Human	EC50	SMILES
1.7855 µM	18.1 µM	Cc1nc(C(=O)NC(C)c2ncco2)nc(NCCc2cn[nH]c2)c1C (stereo not shown) [Compound 108, 4-((2-(1H-pyrazol-4-yl)ethyl)amino)-5,6-dimethyl-N-(1-(oxazol-2-yl)ethyl)pyrimidine-2-carboxamide]
1.933 µM	11.2 µM	Cc1nc(C(=O)N[C@H](C)c2cncc(F)c2)nc(NCCc2cn[nH]c2)c1C [Compound 109, (R)-4-((2-(1H-pyrazol-4-yl)ethyl)amino)-N-(1-(5-fluoropyridin-3-yl)ethyl)-5,6-dimethylpyrimidine-2-carboxamide]
1.9815 µM	16.2 µM	Cc1nc(C(=O)NC(C)c2ccncc2F)nc(NCCc2cn[nH]c2)c1C (stereo not shown) [Compound 110, 4-((2-(1H-pyrazol-4-yl)ethyl)amino)-N-(1-(3-fluoropyridin-4-yl)ethyl)-5,6-dimethylpyrimidine-2-carboxamide]
2.084 µM	18.3 µM	Cc1nc(C(=O)NCCc2ccncc2F)nc(NCCc2cn[nH]c2)c1C [Compound 113, 4-((2-(1H-pyrazol-4-yl)ethyl)amino)-N-(2-(3-fluoropyridin-4-yl)ethyl)-5,6-dimethylpyrimidine-2-carboxamide]
2.384 µM	11.8 µM	Cc1nc(C(=O)N[C@H](C)c2ccc(F)cn2)nc(NCCc2cn[nH]c2)c1C [Compound 118, (R)-4-((2-(1H-pyrazol-4-yl)ethyl)amino)-N-(1-(5-fluoropyridin-2-yl)ethyl)-5,6-dimethylpyrimidine-2-carboxamide]
2.6905 µM	12 µM	COc1cccnc1[C@@H](C)NC(=O)c1nc(C)c(C)c(NCCc2cn[nH]c2)n1 [Compound 124, (R)-4-((2-(1H-pyrazol-4-yl)ethyl)amino)-N-(1-(3-methoxypyridin-2-yl)ethyl)-5,6-dimethylpyrimidine-2-carboxamide]
32.9385 µM	60 µM	Cc1nc(C(=O)N[C@H](C)c2cccnc2)nc(NCCc2cn[nH]c2)c1C [Compound 127, (R)-4-((2-(1H-pyrazol-4-yl)ethyl)amino)-5,6-dimethyl-N-(1-(pyridin-3-yl)ethyl)pyrimidine-2-carboxamide]
